These results are taken from patent US20100075965A1, “PI3 KINASE INHIBITORS AND METHODS OF THEIR USE” (Novartis AG, priority 2006, published 2010).

The target of one assay is PI3 K Alpha (Homo sapiens, UniProt P42336). Description: PI3 kinase phosphorylation assays (homogenous solution phase, one step solid phase, ATP depletion/KinaseGlo). The class given is biochemical.
For assay [1], the system named is pSer473-Akt in A2780 cells. Description: pSer473 Akt assay to monitor PI3K pathway in A2780 cells (MSD). The class given is cell-based. The conditions noted are these: Homo sapiens. The gist of the method:
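EC50 is derived from percent inhibition of Akt Ser473 phosphorylation, normalised to total Akt and compared with DMSO-only wells, read by MSD immunoassay. Lysates came from A2780 cells plated overnight at 15,000/well and exposed to compound for one hour at 37 °C.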

The next assay has as its system A2780 cells. Description: Viability assay in A2780 (Cell Titer Glo). The class given is cell-based, human. The conditions noted are these: Homo sapiens. The gist of the method: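 EC50 values come from Cell Titer Glo luminescence after 72 hrs of compound exposure at 37° C, run in duplicate. A2780 cells were plated at 1,000 per well in DMEM with 10% FBS and dosed with 3-fold serial dilutions.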

[2] abbreviates: A2780 cells, read-out: A2780 pAKT 473 EC50.
Where [3] appears, read: A2780 cells, read-out: A2780 Cell prolif. EC50.
Setting [4] is: ATP depletion assay, read-out: PI3 K Alpha IC50.
Setting [5] is: 1 h, A2780 cells, one hour incubation, read-out: A2780 pAKT473 EC50.
Setting [6] is: A2780 cells, 72 hrs, read-out: A2780 Cell prolif. EC50.

SMILES strings stand for the structures. Read-outs that look alike come from different tables or passages of the source.

PI3 K Alpha, sequence (P42336 whole entry): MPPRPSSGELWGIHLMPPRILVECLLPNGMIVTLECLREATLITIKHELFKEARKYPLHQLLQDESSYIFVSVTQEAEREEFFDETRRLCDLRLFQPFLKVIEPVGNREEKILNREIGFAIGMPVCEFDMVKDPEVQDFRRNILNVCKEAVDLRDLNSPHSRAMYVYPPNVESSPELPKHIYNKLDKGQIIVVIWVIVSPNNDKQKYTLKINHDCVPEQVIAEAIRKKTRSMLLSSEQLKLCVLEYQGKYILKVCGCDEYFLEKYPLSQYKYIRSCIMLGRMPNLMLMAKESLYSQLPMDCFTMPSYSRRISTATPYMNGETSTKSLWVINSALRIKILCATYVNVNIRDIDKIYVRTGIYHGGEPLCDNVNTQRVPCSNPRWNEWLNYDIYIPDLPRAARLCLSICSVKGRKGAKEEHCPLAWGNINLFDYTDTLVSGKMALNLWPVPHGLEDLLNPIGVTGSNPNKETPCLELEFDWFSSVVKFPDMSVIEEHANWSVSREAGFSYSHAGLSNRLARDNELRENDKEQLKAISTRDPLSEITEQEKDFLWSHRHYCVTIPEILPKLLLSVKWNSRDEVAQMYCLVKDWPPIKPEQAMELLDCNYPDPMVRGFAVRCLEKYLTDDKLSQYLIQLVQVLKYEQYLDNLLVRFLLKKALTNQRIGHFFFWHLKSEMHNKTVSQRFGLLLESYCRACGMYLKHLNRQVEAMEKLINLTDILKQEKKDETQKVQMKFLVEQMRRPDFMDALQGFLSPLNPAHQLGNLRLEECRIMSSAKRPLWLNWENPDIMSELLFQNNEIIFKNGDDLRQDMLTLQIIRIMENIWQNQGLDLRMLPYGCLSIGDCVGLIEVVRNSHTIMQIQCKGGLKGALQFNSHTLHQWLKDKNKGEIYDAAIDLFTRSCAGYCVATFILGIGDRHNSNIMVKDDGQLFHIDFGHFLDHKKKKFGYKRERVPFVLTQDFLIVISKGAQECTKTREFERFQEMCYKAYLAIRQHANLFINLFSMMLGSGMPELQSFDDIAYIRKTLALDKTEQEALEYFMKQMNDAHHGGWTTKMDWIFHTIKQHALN
PI3 K Alpha, sequence (P27986 whole entry partner): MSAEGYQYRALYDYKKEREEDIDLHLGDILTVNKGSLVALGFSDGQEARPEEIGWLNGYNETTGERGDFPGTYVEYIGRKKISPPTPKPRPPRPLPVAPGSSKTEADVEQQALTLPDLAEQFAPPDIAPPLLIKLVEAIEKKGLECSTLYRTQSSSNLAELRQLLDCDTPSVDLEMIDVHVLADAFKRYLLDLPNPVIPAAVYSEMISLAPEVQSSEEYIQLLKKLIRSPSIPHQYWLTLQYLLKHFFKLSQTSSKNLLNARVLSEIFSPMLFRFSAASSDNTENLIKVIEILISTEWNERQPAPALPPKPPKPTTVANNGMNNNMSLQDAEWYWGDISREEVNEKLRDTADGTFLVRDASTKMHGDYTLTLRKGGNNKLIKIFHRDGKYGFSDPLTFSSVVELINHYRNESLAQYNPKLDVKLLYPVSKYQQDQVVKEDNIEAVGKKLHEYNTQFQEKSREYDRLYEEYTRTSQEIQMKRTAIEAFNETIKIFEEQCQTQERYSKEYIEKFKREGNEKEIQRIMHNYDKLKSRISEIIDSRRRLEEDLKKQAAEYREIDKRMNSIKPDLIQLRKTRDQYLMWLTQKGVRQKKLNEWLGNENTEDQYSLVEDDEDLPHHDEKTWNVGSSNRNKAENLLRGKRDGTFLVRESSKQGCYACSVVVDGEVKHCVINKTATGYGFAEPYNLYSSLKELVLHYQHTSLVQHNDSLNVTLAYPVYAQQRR

As for `CC(=O)Nc1nc2ccc(-c3cnc(N)c(C(F)(F)F)c3)cn2c1-c1ccc(C(N)=O)cc1` [Example 13, 4-[2-Acetylamino-6-(6-amino-5-trifluoromethyl-pyridin-3-yl)-imidazo[1,2-a]pyridin-3-yl]-benzamide], at PI3 K Alpha (read-out: PI3K Alpha IC50), the IC50 was less than 1000 nM. Also, the EC50 is less than 25000 nM in assay [1] (setting [2]) and less than 25 µM in the assay with A2780 cells (setting [3]).

With `CCN1CCN(CCCC(=O)Nc2cn3cc(-c4cnc(N)c(C(F)(F)F)c4)ccc3n2)CC1` [Example 206, N-(6-(6-amino-5-(trifluoromethyl)pyridin-3-yl)imidazo[1,2-a]pyridin-2-yl)-4-(4-ethylpiperazin-1-yl)butanamide], the IC50 on PI3 K Alpha (read-out: PI3K Alpha IC50) is less than 1000 nM. The concentration giving a half-maximal response (EC50) in assay [1] (setting [2]) is less than 1000 nM; with A2780 cells (setting [3]), less than 10 µM.

With `CC(=O)Nc1cn2cc(-c3cnc(N)nc3)ccc2n1` [Example 4, N-[6-(2-Amino-pyrimidin-5-yl)-imidazo[1,2-a]pyridin-2-yl]-acetamide], on PI3 K Alpha (read-out: PI3K Alpha IC50), the IC50 was less than 1000 nM. For the same compound, the EC50 in assay [1] (setting [2]) was less than 10000 nM; in the assay with A2780 cells (setting [3]), less than 25 µM.

Take `CC(C)(C)OC(=O)NCCCC(=O)Nc1cn2nc(-c3cnc(N)c(C(F)(F)F)c3)ccc2n1` [Example 79, tert-butyl 4-(6-(6-amino-5-(trifluoromethyl)pyridin-3-yl)imidazo[1,2-b]pyridazin-2-ylamino)-4-oxobutylcarbamate]: on PI3 K Alpha (read-out: PI3K Alpha IC50), the IC50 is less than 1000 nM. Moreover, the EC50 in assay [1] (setting [2]) was less than 10000 nM; with A2780 cells (setting [3]) it was less than 1 µM.

With `CC(C)(C)OC(=O)N1CCN(c2ccc(C(=O)Nc3cn4cc(-c5cnc(N)c(C(F)(F)F)c5)ccc4n3)cn2)CC1` [Example 85, tert-butyl 4-(5-(6-(6-amino-5-(trifluoromethyl)pyridin-3-yl)imidazo[1,2-a]pyridin-2-ylcarbamoyl)pyridin-2-yl)piperazine-1-carboxylate], at PI3 K Alpha (read-out: PI3K Alpha IC50), the IC50 is less than 1000 nM. Also, the EC50 in assay [1] (setting [2]) is less than 1000 nM; in the assay on A2780 cells (setting [3]), less than 1 µM.

Consider `Nc1ncc(-c2ccc3nc(NC(=O)c4ccc(-n5ccnc5)cc4)cn3c2)cc1C(F)(F)F` [Example 187, N-(6-(6-amino-5-(trifluoromethyl)pyridin-3-yl)imidazo[1,2-a]pyridin-2-yl)-4-(1H-imidazol-1-yl)benzamide], for which the IC50 on PI3 K Alpha (read-out: PI3K Alpha IC50) is less than 1000 nM. Also, the EC50 in assay [1] (setting [2]) was less than 1000 nM; in the assay with A2780 cells (setting [3]) it was less than 10 µM.

In the case of `Nc1ncc(-c2ccc3nc(NC(=O)CCCO)cn3c2)cc1C(F)(F)F` [Example 27, N-[6-(6-Amino-5-trifluoromethyl-pyridin-3-yl)-imidazo[1,2-a]pyridin-2-yl]-4-hydroxy-butyramide], on PI3 K Alpha (read-out: PI3K Alpha IC50), the IC50 was less than 1000 nM. Moreover, the EC50 in assay [1] (setting [2]) was less than 1000 nM; with A2780 cells (setting [3]), less than 10 µM.

Regarding `CC(=O)Nc1cn2cc(-c3cnc(N)c(Cl)c3)ccc2n1` [Example 188, N-(6-(6-amino-5-chloropyridin-3-yl)imidazo[1,2-a]pyridin-2-yl)acetamide], the IC50 on PI3 K Alpha (read-out: PI3K Alpha IC50) is less than 1000 nM. In addition, the results for the EC50 (in assay [1] (setting [2]); in the assay on A2780 cells (setting [3])) were less than 1000 nM and less than 10 µM, respectively.

Regarding `CCN(CC)C(=O)c1cc(-c2ccc3nc(NC(C)=O)cn3c2)cnc1N` [Example 218, 5-(2-acetamido-imidazo[1,2-a]pyridin-6-yl)-2-amino-N,N-diethyl-nicotinamide], the IC50 at PI3 K Alpha (read-out: PI3K Alpha IC50) is less than 1000 nM. Also, the EC50 in assay [1] (setting [2]) was less than 1000 nM; with A2780 cells (setting [3]) it was less than 10 µM.

Take `CC(=O)Nc1cn2cc(-c3ccc(N)nc3)ccc2n1` [Example 3, N-[6-(6-Amino-pyridin-3-yl)-imidazo[1,2-a]pyridin-2-yl]-acetamide]: the IC50 at PI3 K Alpha (read-out: PI3K Alpha IC50) was less than 1000 nM. In addition, the results for the EC50 (in assay [1] (setting [2]); in the assay with A2780 cells (setting [3])) were less than 1000 nM and less than 10 µM, respectively.

With `CC(=O)Nc1cn2cc(-c3cnc(N)c(C(=O)NCCN4CCCC4)n3)ccc2n1` [Example 100, 6-(2-acetamido-imidazo[1,2-a]pyridin-6-yl)-3-amino-N-(2-(pyrrolidin-1-yl)ethyl) pyrazine-2-carboxamide], the IC50 on PI3 K Alpha (read-out: PI3K Alpha IC50) was less than 1000 nM. Also, the values for the EC50 (in assay [1] (setting [2]); in the assay with A2780 cells (setting [3])) were less than 1000 nM and less than 1 µM, respectively.

For `COC(=O)CCCC(=O)Nc1cn2nc(-c3cnc(N)c(C(F)(F)F)c3)ccc2n1` [Example 132, methyl 5-(6-(6-amino-5-(trifluoromethyl)pyridin-3-yl)imidazo[1,2-b]pyridazin-2-ylamino)-5-oxopentanoate], the IC50 at PI3 K Alpha (read-out: PI3K Alpha IC50) was less than 1000 nM. Also, the results for the EC50 (in assay [1] (setting [2]); with A2780 cells (setting [3])) were less than 1000 nM and less than 10 µM, respectively.

Take `CC(=O)Nc1nc2ccc(-c3cnc(N)c(C(F)(F)F)c3)cn2c1C#Cc1cccnc1` [Example 83, N-(6-(6-amino-5-(trifluoromethyl)pyridin-3-yl)-3-(pyridin-3-ylethynyl)imi-dazo[1,2-a]pyridin-2-yl)acetamide]: at PI3 K Alpha, the IC50 is less than 1000 nM. The EC50 is less than 1000 nM in assay [1] (A2780, read-out: A2780 pAKT 473 EC50) and less than 1 µM in the assay with A2780 cells (A2780, read-out: A2780 Cell prolif. EC50).

`COc1ccc(CC(=O)Nc2cn3cc(-c4cnc(N)c(C(F)(F)F)c4)ccc3n2)cc1` [Example 99, N-(6-(6-amino-5-(trifluoromethyl)pyridin-3-yl)imidazo[1,2-a]pyridin-2-yl)-2-(4-methoxyphenyl) acetamide]: the IC50 at PI3 K Alpha (read-out: PI3K Alpha IC50) is less than 1000 nM. Moreover, the EC50 in assay [1] (setting [2]) is less than 1000 nM; in the assay with A2780 cells (setting [3]), less than 1 µM.

`NC(=O)[C@@H]1CCCN1C(=O)Nc1nc2ccc(-c3cnc(N)c(C(F)(F)F)c3)cc2s1` [Example 2-33, (S)-N1-(6-(6-amino-5-(trifluoromethyl)pyridin-3-yl)benzo[d]thiazol-2-yl)pyrrolidine-1,2-dicarboxamide]: at PI3 K Alpha (setting [4]), the IC50 was less than 1000 nM. Also, the values for the concentration giving a half-maximal response (EC50) (in assay [1] (setting [5]); in the assay with A2780 cells (setting [6])) were less than 1000 nM and less than 10 µM, respectively.

On to `CCC(=O)Nc1cn2nc(-c3cnc(N)c(C(F)(F)F)c3)ccc2n1` [Example 96, N-(6-(6-amino-5-(trifluoromethyl)pyridin-3-yl)imidazo[1,2-b]pyridazin-2-yl)propionamide], for which the IC50 at PI3 K Alpha (read-out: PI3K Alpha IC50) was less than 1000 nM. Further, the results for the EC50 (in assay [1] (setting [2]); in the assay with A2780 cells (setting [3])) were less than 1000 nM and less than 1 µM, respectively.

Consider `CC(=O)Nc1cn2cc(-c3cnc(N)cc3F)ccc2n1` [Example 29, N-[6-(6-Amino-4-fluoro-pyridin-3-yl)-imidazo[1,2-a]pyridin-2-yl]-acetamide], for which the IC50 on PI3 K Alpha (read-out: PI3K Alpha IC50) is less than 1000 nM. Further, the EC50 in assay [1] (setting [2]) is less than 10000 nM; in the assay on A2780 cells (setting [3]), less than 25 µM.

For the compound `Nc1ncc(-c2ccc3nc(NC(=O)CCCN4CCCCC4)cn3c2)cc1C(F)(F)F` [Example 25, N-[6-(6-Amino-5-trifluoromethyl-pyridin-3-yl)-imidazo[1,2-a]pyridin-2-yl]-4-piperidin-1-yl-butyramide], the half-maximal inhibitory concentration (IC50) at PI3 K Alpha (read-out: PI3K Alpha IC50) was less than 1000 nM. Further, the figures for the 50% effective concentration (EC50) (in assay [1] (setting [2]); with A2780 cells (setting [3])) were less than 1000 nM and less than 10 µM, respectively.

Turning to `Nc1ccc(-c2ccc3nc(NC(=O)CN4CCOCC4)sc3c2)cn1` [Example 2-16, N-[6-(6-Amino-pyridin-3-yl)-benzothiazol-2-yl]-2-morpholin-4-yl-acetamide], on PI3 K Alpha (setting [4]), the IC50 is less than 1000 nM. In addition, the EC50 in assay [1] (setting [5]) was less than 1000 nM; in the assay on A2780 cells (setting [6]), less than 25 µM.

`CC(=O)Nc1nc2ccc(-c3cnc(N)c(C(F)(F)F)c3)cn2c1C#Cc1ccc(C)cc1` [Example 127, N-(6-(6-amino-5-(trifluoromethyl)pyridin-3-yl)-3-(p-tolylethynyl)imidazo[1,2-a]pyridin-2-yl)acetamide]: on PI3 K Alpha (read-out: PI3K Alpha IC50), the 50% inhibitory concentration (IC50) was less than 1000 nM. The EC50 in assay [1] (setting [2]) is less than 1000 nM; in the assay on A2780 cells (setting [3]), less than 10 µM.

For the compound `CC(=O)Nc1nc2ccc(-c3cnc(N)c(C(F)(F)F)c3)cn2c1-c1ccccc1` [Example 12, N-[6-(6-Amino-5-trifluoromethyl-pyridin-3-yl)-3-phenyl-imidazo[1,2-a]pyridin-2-yl]-acetamide], the IC50 at PI3 K Alpha (read-out: PI3K Alpha IC50) was less than 1000 nM. The EC50 in assay [1] (setting [2]) was less than 10000 nM; with A2780 cells (setting [3]), less than 25 µM.

As for `COCC(=O)Nc1cn2nc(-c3cnc(N)c(C(F)(F)F)c3)ccc2n1` [Example 74, n-(6-(6-amino-5-(trifluoromethyl)pyridin-3-yl)imidazo[1,2-b]pyridazin-2-yl)-2-methoxyacetamide], the IC50 on PI3 K Alpha (read-out: PI3K Alpha IC50) is less than 1000 nM. Moreover, the figures for the EC50 (in assay [1] (setting [2]); with A2780 cells (setting [3])) were less than 1000 nM and less than 1 µM, respectively.

In the case of `CC(=O)Nc1cn2cc(-c3cnc(N)c(-c4ccccc4)n3)ccc2n1` [Example 113, N-(6-(5-amino-6-phenylpyrazin-2-yl)imidazo[1,2-a]pyridin-2-yl)acetamide], the IC50 at PI3 K Alpha (read-out: PI3K Alpha IC50) was less than 1000 nM. In addition, the EC50 in assay [1] (setting [2]) was less than 1000 nM; in the assay with A2780 cells (setting [3]) it was less than 10 µM.

As for `C/C=C/c1c(NC(C)=O)nc2ccc(-c3cnc(N)c(C(F)(F)F)c3)cn12` [Example 193, (E)-N-(6-(6-amino-5-(trifluoromethyl)pyridin-3-yl)-3-(prop-1-enyl)imidazo[1,2-a]pyridin-2-yl)acetamide], the IC50 at PI3 K Alpha (read-out: PI3K Alpha IC50) was less than 1000 nM. Also, the EC50 in assay [1] (setting [2]) was less than 10000 nM; with A2780 cells (setting [3]), less than 10 µM.

Turning to `CC(=O)Nc1nc2ccc(-c3cnc(N)c(C(=O)N4CCOCC4)c3)cc2s1` [Example 2-26, N-{6-[6-Amino-5-(morpholine-4-carbonyl)-pyridin-3-yl]-benzothiazol-2-yl}-acetamide], the IC50 at PI3 K Alpha (setting [4]) was less than 1000 nM. Besides, the EC50 is less than 1000 nM in assay [1] (setting [5]) and less than 10 µM in the assay with A2780 cells (setting [6]).

In the case of `CCCNc1ccc(-c2ccc3nc(NC(C)=O)sc3c2)cn1` [Example 2-7, N-[6-(6-Propylamino-pyridin-3-yl)-benzothiazol-2-yl]-acetamide], the half-inhibitory concentration (IC50) at PI3 K Alpha (setting [4]) was less than 1000 nM. Moreover, the EC50 in assay [1] (setting [5]) was less than 1000 nM; in the assay with A2780 cells (setting [6]), less than 25 µM.
